Results from patent publication US9199985B2, “Compounds and methods for treatment of hypertension” (Medivation Technologies, Inc., priority 2011, dated 2015).

Conditions: conscious rabbits, intravenous, dose regimen identical to test compound; positive control
Description: Four adult New Zealand White rabbits of both sexes are chosen for these studies. […] The conscious rabbits are implanted with an intravenous catheter in marginal ear vein or by centrally by intracisternal catheter interfaced to a pressure transducer connected to a suitable recorder. To unveil peripheral effects of test compound, two sets of acute studies are conducted in rabbits. In the first set of studies, test compound is dosed to rabbit intravenously for a dose-response study with cumulative doses starting 0 (Ringer's Lock solution as a vehicle), 0.1, 0.3, 1, 3.2 and 10 mg/kg where each dose is tested on a separate day. A single intravenous bolus dose at 3 mg/kg is given and a time-course study is conducted in the second set of studies. Systolic, diastolic, mean and diastolic blood pressures are recorded in both the studies. Data collections are made for 3 hours in the second set of studies. Heart rate (HR) is derived electronically using an algorithm to determine HR from pulse interval. In a separate set of studies, Clonidine (positive control) is tested where all experimental procedures including dose-regimen are identical to that of the studies with test compound.

Clc1cccc(Cl)c1N=C1NCCN1 [Clonidine]
maximum drop of arterial blood pressure: −6 mmHg
